Reference: patent US20100048713A1, “COMPOUNDS ACTING ON THE SEROTONIN TRANSPORTER” (Aarhus Universitet, priority 2006, published 2010)
pEC50, pIC50: −log10 of the molar value.

What was measured:
hSERT [1] = molecular target: T1, hSERT (Homo sapiens, UniProt P31645); test: Binding assay on whole cells transfected with hSERT ([3H]-citalopram displacement); settings: for pEC50: whole cell assay, 35 nM [3H]-citalopram, 60 min room temperature, table title: 45 min preincubation
T1 construct: expressed in transfected cells; the general 96-well protocol names Cos-1
Description: The pcDNA3 plasmid vector containing the hSERT gene was used for transfection (see FIG. 6).
The 96-well plate was washed with PBSCM to remove DMEM prior to the assay. […] The plate was subsequently incubated for 60 min at room temperature. The assay was terminated by washing once with PBSCM. The amount of accumulated [^3H]-citalopram was determined by solubilizing cells in scintillant (MicroScint 20) with direct counting of plates in a Packard TopCounter. Data was analyzed by GraphPad software.

hSERT [2] = molecular target: T1, hSERT; test: 5-HT uptake assay with preincubation (whole cells); assay type: cell-based; settings: whole cell assay with preincubation (title 45 min, text 60 min), 75 nM [3H]-5-HT, 10 min
Description: 7 μl Fugene-6 was mixed with 112 μl Dulbecco's modified Eagle's medium, and incubated at room temperature for 5 minutes. 4 μg of plasmid were added and the mixture was further incubated at least 15 minutes. Cos-1 cells were trypsinized and suspended in growth media, and the plasmid/Fugene-6 mixture was added followed by dispersion into a 96-well plate.
The 96-well plate was washed with PBSCM to remove DMEM prior to the assay. 50 μl PBSCM containing increasing concentrations of allosteric ligand were added to each well, and incubated for 60 min at room temperature under moderate agitation. […] The plate was subsequently incubated for 10 min at room temperature. The assay was terminated by washing once with PBSCM. The amount of accumulated [^3H]-5-HT was determined by solubilizing cells in scintillant (MicroScint 20) with direct counting of plates in a Packard TopCounter. Data was analyzed by GraphPad software.
We tested the allosteric ligands for their ability to inhibit/activate 5-HT-uptake in the whole-cell assay after 60 minutes preincubation.

hSERT [3] = molecular target: T1, hSERT; test: 5-HT uptake assay, 10 min incubation without preincubation; assay type: cell-based; settings: 75 nM [3H]-5-HT, no preincubation
Description: Cells were grown for 48 h to confluency, and prior to uptake assay, plates were washed in PBSCM. All washing steps were carried out in an automatic plate washer. […] The assay was terminated by washing with PBSCM. The amount of accumulated [^3H]-5HT was determined by solubilizing cells in scintillant (MicroScint 20) with direct counting of plates in a Packard TopCounter. Data was analyzed by GraphPad software.
(§1) Dissociation of [^3H]-citalopram from the serotonin transporter has been studied using membrane preparations from SERT-expressing cells. The off-rates of the radioligand were measured in the presence/absence of a fixed concentration of allosteric ligand. […] Additionally, the allosteric impact on the radioligand in the absence of citalopram, was studied by combining 10 μM fluoxetine and 200/2000 μM allosteric ligand in the dissociation buffer. […] The cells were incubated for 10 minutes before the assay was terminated by washing in PBSCM.

hSERT [4] = molecular target: T1, hSERT; test: Binding of [125I]-RTI-55 in whole cell assay, hSERT; settings: displacement of [125I]-RTI-55
Text: RTI-55 was used to test for the compounds of the present invention to act as displacers of cocain.
Because RTI-55 (and cocaine) acts as inhibitors of SERT and DAT, we also performed the binding assay in cells transfected with human DAT.

hSERT [5] = molecular target: T1, hSERT; test: Binding of [3H]-citalopram to membrane preparations; settings: 35 nM [3H]-citalopram, 60 min RT
Description: (§2) 17.5 μl Fugene-6 (Roche Molecular Biochemicals) were mixed with 280 μl Dulbecco's modified Eagle's medium, and incubated at room temperature for 5 minutes. 10 μg of plasmid were added and the mixture was further incubated at least 15 minutes. […] Prior to harvesting the dish was rinsed in PBS. Cells were harvested with a cell scraper in buffer 1 (50 mM Tris-base, 150 mM NaCl, 20 mM EDTA, pH 7.4). After centrifugation (3000 g at 4° C. for 10 mins), cells were suspended and homogenized with an IKA Ultra-Turrax from Rose Scientific Ltd (Edmonton, Alberta, Canada) for 20 s in buffer 1. Membranes were pelleted by ultracentrifugation (12 000 g at 4° C. for 15 min) and homogenization was repeated in buffer 1. Finally, after ultracentrifugation (12000 g, 4° C., 15 min) membranes were resuspended in 1 ml buffer 3 (50 mM Tris-base, 120 mM NaCl, 5 mM KCl, pH 7.4) and stored at −80° C.
A dilution series of the allosteric ligand was prepared in buffer 3 containing 70 nM [^3H]-citalopram. […] The mixture was incubated under moderate agitation at RT for 60 min. Reactions were terminated by filtration through GF/C glass-fibre filters (Unifilter, Perkin Elmer Life Sciences), preincubated with 40 μl 0.5 % polyethyleneimine, using a Pachard Bell cell harvester, and subsequently washed three times with water. Filters were soaked in 40 μl Microscint 20 scintillation liquid (Pachard Bell). Bound radioactivity was determined by direct counting of plates using a Packard Bell microplate scintillation counter. Displacing curves were obtained by plotting residual binding vs. log concentration of the displacing ligand.

hSERT [6] = molecular target: T1, hSERT; test: Dissociation assay with [3H]-citalopram and hSERT membrane preparations; assay type: binding; settings: for Stabilises dissociation of [3H]-citalopram: own effect (10 uM fluoxetine) (concentration which affects dissociation): 10 uM fluoxetine in dissociation buffer; for Stabilises dissociation of [3H]-citalopram: 15 uM citalopram (concentration which affects dissociation): 15 uM citalopram in dissociation buffer
Description: as §2
Dissociation assay with [^3H]-citalopram and membrane preparations SERT-[^3H]-citalopram complex was formed by incubating hSERT membrane preparation and radioligand in buffer 3 during a 60 min incubation at 4° C. Radioligand was present at a concentration 10 times the Kd value. The time kinetic of dissociation was followed by adding 10 μL complex solution to 250 μL buffer 3 in 96-well plates and incubating subsequently for increasing time intervals at RT. Reactions were terminated by filtration through GF/C glass-fibre filters (Unifilter, Perkin Elmer Life Sciences), preincubated with 40 μl 0.5 % polyethyleneimine, using a Pachard Bell cell harvester, and subsequently washed three times with water. Filters were soaked in 40 μl Microscint 20 scintillation liquid (Pachard Bell). Bound radioactivity was determined by direct counting of plates using a Packard Bell microplate scintillation counter. Dissociation curves were obtained by plotting residual binding vs. time of dissociation.
The interaction of the allosteric ligand with the allosteric mechanism used by citalopram was studied by combining allosteric ligand and citalopram in the dissociation buffer. The interaction of the allosteric ligand with the radioligand was studied by combining the allosteric ligand and fluoxetine in the dissociation buffer.
as §1

T1 sequence (P31645 whole entry): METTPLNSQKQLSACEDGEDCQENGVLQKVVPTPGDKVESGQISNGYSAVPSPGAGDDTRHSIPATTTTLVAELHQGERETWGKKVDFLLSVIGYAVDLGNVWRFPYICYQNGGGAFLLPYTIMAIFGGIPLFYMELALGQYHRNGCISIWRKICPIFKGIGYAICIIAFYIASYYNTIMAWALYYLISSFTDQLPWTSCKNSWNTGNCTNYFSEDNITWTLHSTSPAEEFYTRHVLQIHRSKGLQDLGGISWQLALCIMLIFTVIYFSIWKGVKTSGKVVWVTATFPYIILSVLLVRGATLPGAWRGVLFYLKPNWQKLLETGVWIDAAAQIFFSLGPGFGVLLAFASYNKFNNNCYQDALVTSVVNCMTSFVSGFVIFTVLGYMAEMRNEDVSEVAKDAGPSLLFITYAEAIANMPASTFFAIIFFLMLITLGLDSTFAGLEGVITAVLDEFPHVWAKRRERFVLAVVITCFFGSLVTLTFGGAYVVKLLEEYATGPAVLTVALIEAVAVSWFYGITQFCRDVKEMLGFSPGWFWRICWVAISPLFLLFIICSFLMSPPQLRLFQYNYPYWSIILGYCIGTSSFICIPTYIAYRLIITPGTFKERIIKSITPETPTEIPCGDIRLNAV

Row | SMILES | pEC50 (hSERT [1]) | pIC50 (hSERT [2]) | 5-HT uptake (effect) (hSERT [3]) | EC50 (hSERT [4]) [µM] | Binding of [3H]-citalopram (Bmax) (hSERT [5]) | Stabilises dissociation of [3H]-citalopram: own effect (10 uM fluoxetine) (concentration which affects dissociation) (hSERT [6]) | Stabilises dissociation of [3H]-citalopram: 15 uM citalopram (concentration which affects dissociation) (hSERT [6]) | displacement of the radioligand (FIG. 3) (hSERT [1]; increasing concentrations, 60 minutes incubation at room temperature) | 5-HT uptake (effect) (hSERT [3]; listed as PefaCl) | concentration that increases the allosteric impact on dissociation by 15 μM citalopram (FIG. 7) (hSERT [6]; 15 μM citalopram) [µM]
1 | O=S(=O)(c1ccccc1)c1ccccc1 [TS5] | < 2.70 | < 2.70 | – | – | – | – | – | – | – | –
2 | CN(C)c1cccc2c(S(=O)(=O)Cl)cccc12 [TS7] | 2.86 | < 2.70 | – | – | – | – | – | – | – | –
3 | N#Cc1cccc2ccccc12 [TS21] | < 2.70 | 4.22 | – | – | – | – | – | – | – | –
4 | CCOS(=O)(=O)c1cccc2ccccc12 [1-NSC react. EtOH, 1-Naphthalene sulfonic acid ethyl ester] | 3.27 | 3.96 | Inhibition | 462 | Displace | 300 µM | 300 µM | – | – | –
5 | O=P(O)(O)c1ccccc1 [TS4] | < 2.70 | < 2.70 | – | – | – | – | – | – | – | –
6 | O=[N+]([O-])c1cccc2ccccc12 [TS22] | < 2.70 | 5.54 | Inhibition | – | No effect | 200 µM | 200 µM | – | – | –
7 | C=CS(=O)(=O)c1ccccc1 [TS17] | 2.98 | < 2.70 | – | – | No effect | 2000 µM | 2000 µM | – | – | –
8 | Nc1cccc2c(N)cccc12 [TS19] | 3.02 | 3.37 | – | – | – | – | – | displaces the radioligand | – | –
9 | NCCc1ccc(S(=O)(=O)Cl)cc1 [PefaCI, 4-(2-Aminoethyl)benzenesulfonyle cloride] | 2.78 | – | Increase | – | No effect | 2000 µM | 2000 µM | – | increases 5-HT uptake | –
10 | Cc1ccc(S(=O)(=O)N(C)N=O)cc1 [TS13] | < 2.70 | < 2.70 | Increase | – | displace | 200 µM | 200 µM | – | – | –
11 | COS(=O)(=O)c1ccc(C)cc1 [TS6] | < 2.70 | < 2.70 | Increase | – | No effect | No effect | 2000 µM | – | – | –
12 | O=S(=O)(Cl)c1ccccc1 [BSC, benzenesulfonyl chloride] | – | – | Increase | – | No effect | – | 3000 µM | – | – | –
13 | Nc1cccc2cccc(S(=O)(=O)O)c12 [TS11] | – | < 2.70 | – | – | – | – | – | – | – | –
14 | Clc1cccc2ccccc12 [TS20] | < 2.70 | 3.43 | Inhibition | – | No effect | 200 µM | 200 µM | – | – | –
15 | Nc1cccc2ccccc12 [TS18] | 2.99 | 3.34 | – | – | – | – | – | – | – | –
16 | [C-]#[N+]CS(=O)(=O)c1ccc(C)cc1 [TS15] | < 2.70 | < 2.70 | No effect | – | No effect | 2000 µM | 2000 µM | – | – | –
17 | Cc1ccc2ccccc2c1[N+](=O)[O-] [TS23] | 2.99 | 4.80 | – | – | – | – | – | – | – | –
18 | O=S(=O)(Cl)Cc1ccccc1 [PMSC] | – | – | Increase | – | No effect | – | No effect | – | – | –
19 | O=[N+]([O-])c1ccc(F)c2ccccc12 [TS25] | < 2.70 | 4.59 | – | – | – | – | – | – | – | –
20 | NC(=O)c1ccccc1 [TS10] | < 2.70 | 2.94 | – | – | – | – | – | – | – | –
21 | Cc1ccc(S(N)(=O)=O)cc1 [TS1] | < 2.70 | < 2.70 | Increase | – | No effect | 2000 µM | 200 µM | – | – | 2000
